For 28 compounds, IC50 results are on record in patent US20250154134A1, “COMPOUND AS FAK INHIBITOR AND USE THEREOF” (WIGEN BIOMEDICINE TECHNOLOGY (SHANGHAI) CO., LTD., priority 2022, published 2025).

For one assay, the target named is FAK recombinant protein (Homo sapiens (Human), UniProt Q05397). As to the kind of experiment: Inhibitory activity against FAK enzyme (HTRF, TK substrate). In kind it is biochemical. As for the experimental part: A compound serially diluted with DMSO was mixed with a FAK recombinant protein. After the mixture was left to stand at room temperature for 10 min, a biotin-labeled TK substrate (TK) and ATP were added. […] The inhibition percentage and IC50 of the compound were calculated compared to the DMSO control group.
(TR-FRET usually uses a lanthanide donor and a delayed reading to cut background.)

In assay [1] the test system is PC3 cells. As to the kind of experiment: PC3 cell proliferation, 2D activity assay (Cell Titer-Lumi, 72 h). In kind it is cell-based, human. As to conditions: Homo sapiens, PC-3, read-out: 2D inhibitory activity against PC3 cells IC50. As for the experimental part:
(§1) 2D activity assay: 1200 PC3 cells were seeded in a 96-well plate. After overnight adherence culture, A compound serially diluted was added. […] The growth of the cells was evaluated, and the IC50 of the compound inhibiting cell growth was calculated. 3D activity assay: PC3 cells were seeded in a 96-well plate at 1200 cells/well, and 3D culture was performed. 14 days after a compound serially diluted was added, the growth of the cells was measured. The inhibition percentage and IC50 of the compound were calculated compared to the DMSO control group.

Assay [2] has as its system PC3 cells. As to the kind of experiment: PC3 cell proliferation, 3D activity assay (3D culture, 14 days). In kind it is cell-based, human. The note with it: Homo sapiens, PC-3, 336 h, read-out: 3D inhibitory activity against PC3 cells IC50. As for the experimental part: as §1

Each structure is given as a SMILES string. pIC50: −log10 of the molar value.

Chain of FAK recombinant protein (Q05397 whole entry): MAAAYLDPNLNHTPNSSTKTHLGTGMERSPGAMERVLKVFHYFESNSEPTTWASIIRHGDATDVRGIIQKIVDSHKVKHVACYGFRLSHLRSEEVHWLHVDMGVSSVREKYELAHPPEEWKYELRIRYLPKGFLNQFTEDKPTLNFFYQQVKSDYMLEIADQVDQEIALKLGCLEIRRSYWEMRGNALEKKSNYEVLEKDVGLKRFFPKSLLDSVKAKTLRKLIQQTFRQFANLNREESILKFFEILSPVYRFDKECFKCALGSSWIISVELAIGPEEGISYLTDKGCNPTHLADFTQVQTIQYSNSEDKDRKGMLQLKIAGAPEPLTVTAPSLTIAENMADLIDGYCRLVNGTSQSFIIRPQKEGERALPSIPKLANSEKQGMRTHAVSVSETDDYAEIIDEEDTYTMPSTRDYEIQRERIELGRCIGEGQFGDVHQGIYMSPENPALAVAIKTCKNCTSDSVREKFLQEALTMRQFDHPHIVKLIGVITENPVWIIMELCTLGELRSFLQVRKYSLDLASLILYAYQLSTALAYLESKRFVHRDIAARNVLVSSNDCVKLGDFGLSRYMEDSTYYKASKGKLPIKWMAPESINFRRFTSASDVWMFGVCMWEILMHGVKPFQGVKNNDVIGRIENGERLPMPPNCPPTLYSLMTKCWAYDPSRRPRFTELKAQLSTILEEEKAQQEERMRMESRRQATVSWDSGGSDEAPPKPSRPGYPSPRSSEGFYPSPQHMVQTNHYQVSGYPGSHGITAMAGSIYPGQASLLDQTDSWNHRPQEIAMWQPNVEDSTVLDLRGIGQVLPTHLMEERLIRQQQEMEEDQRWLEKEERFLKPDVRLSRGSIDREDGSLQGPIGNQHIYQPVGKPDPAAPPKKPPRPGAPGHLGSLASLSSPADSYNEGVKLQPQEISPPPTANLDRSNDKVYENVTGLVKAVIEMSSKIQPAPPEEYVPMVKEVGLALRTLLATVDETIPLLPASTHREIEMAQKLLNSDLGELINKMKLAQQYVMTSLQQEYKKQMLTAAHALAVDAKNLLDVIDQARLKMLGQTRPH

As to `[2H]C([2H])([2H])N1CCC(NC(=O)c2cc(OC)c(Nc3ncc(C(F)(F)F)c(Oc4cccc5c4C(=O)N(C)C54CC4)n3)cc2F)CC1` [Compound 40], the figures for the pIC50 at FAK recombinant protein, in the assay with PC3 cells [1] and in the assay with PC3 cells [2] were > 7.70, < 5.70 and > 8.30, respectively.
For `CCN1CCC(NC(=O)c2cc(OC)c(Nc3ncc(C(F)(F)F)c(Oc4cccc5c4C(=O)N(C)C54CC4)n3)cc2F)CC1` [Compound 41] the same measures were > 7.70, < 5.70 and > 8.30.
On to `[2H]C([2H])([2H])N1CCC(C)(NC(=O)c2ccc(Nc3ncc(C(F)(F)F)c(Oc4cccc5c4C(=O)N(C)C54CC4)n3)c(OC)c2)CC1` [Compound 42], for which the figures for the pIC50 at FAK recombinant protein, in the assay on PC3 cells [1] and in the assay on PC3 cells [2] were > 7.70, < 5.70 and > 8.30, respectively.
For `[2H]C([2H])([2H])N1CCC(C)(NC(=O)c2cc(OC)c(Nc3ncc(C(F)(F)F)c(Oc4cccc5c4C(=O)N(C)C54CC4)n3)cc2F)CC1` [Compound 43] the same measures were > 7.70, < 5.70 and > 8.30.
For `COc1cc(C(=O)NC2CC3(CCNCC3)C2)ccc1Nc1ncc(C(F)(F)F)c(Oc2cccc3c2C(=O)N(C)C32CC2)n1` [Compound 44] the same measures were > 7.70, < 5.70 and 7.30 to 8.30.
For `[2H]C([2H])([2H])N1CCC2(CC1)CC(NC(=O)c1ccc(Nc3ncc(C(F)(F)F)c(Oc4cccc5c4C(=O)N(C)C54CC4)n3)c(OC)c1)C2` [Compound 45] the same measures were > 7.70, < 5.70 and > 8.30.
As for `CCN1CCC2(CC1)CC(NC(=O)c1ccc(Nc3ncc(C(F)(F)F)c(Oc4cccc5c4C(=O)N(C)C54CC4)n3)c(OC)c1)C2` [Compound 46], the negative-log IC50 (pIC50) at FAK recombinant protein was > 7.70; in the assay on PC3 cells [1], < 5.70; with PC3 cells [2], 7.30 to 8.30.
For `[2H]C([2H])([2H])N1CCC2(CC1)CC(NC(=O)c1cc(OC)c(Nc3ncc(C(F)(F)F)c(Oc4cccc5c4C(=O)N(C)C54CC4)n3)cc1F)C2` [Compound 47] the same measures were > 7.70, < 5.70 and > 8.30.
For `CCN1CCC2(CC1)CC(NC(=O)c1cc(OC)c(Nc3ncc(C(F)(F)F)c(Oc4cccc5c4C(=O)N(C)C54CC4)n3)cc1F)C2` [Compound 48] the same measures were > 7.70, < 5.70 and 7.30 to 8.30.
Regarding `C=Cc1cc(C(=O)NC2CCN(C)CC2)ccc1Nc1ncc(C(F)(F)F)c(Oc2cccc3c2C(=O)N(C)C32CC2)n1` [Compound 49], the pIC50 on FAK recombinant protein is > 7.70; in the assay with PC3 cells [1], < 5.70; in the assay on PC3 cells [2], 7.30 to 8.30.
For `CCc1cc(C(=O)NC2CCN(C)CC2)ccc1Nc1ncc(C(F)(F)F)c(Oc2cccc3c2C(=O)N(C)C32CC2)n1` [Compound 50] the same measures were > 7.70, < 5.70 and 7.30 to 8.30.
As for `CCc1cc(C(=O)NC2CCN(C)CC2)c(F)cc1Nc1ncc(C(F)(F)F)c(Oc2cccc3c2C(=O)N(C)C32CC2)n1` [Compound 51], the pIC50 at FAK recombinant protein is > 7.70; in the assay on PC3 cells [1], < 5.70; in the assay on PC3 cells [2], 7.30 to 8.30.
For `CCc1cc(C(=O)NC2CC3(CCN(C)CC3)C2)ccc1Nc1ncc(C(F)(F)F)c(Oc2cccc3c2C(=O)N(C)C32CC2)n1` [Compound 52] the same measures were > 7.70, < 5.70 and > 8.30.
For `CN1CCC(NC(=O)c2ccc(Nc3ncc(C(F)(F)F)c(Oc4cccc5c4C(=O)N(C)C54CC4)n3)c(OC(F)(F)F)c2)CC1` [Compound 53] the same measures were > 7.70, < 5.70 and 7.30 to 8.30.
For `COc1cc(C(=O)NC2CCN(C)CC2)c(-c2cnn(C)c2)cc1Nc1ncc(C(F)(F)F)c(Oc2cccc3c2C(=O)N(C)C32CC2)n1` [Compound 54] the same measures were > 7.70, < 5.70 and > 8.30.
As for `COc1cc(C(=O)N2CC3(CCN(C)CC3)C2)ccc1Nc1ncc(C(F)(F)F)c(Oc2cccc3c2C(=O)N(C)C32CC2)n1` [Compound 55], the negative logarithm of the IC50 (pIC50) at FAK recombinant protein is > 7.70; in the assay on PC3 cells [1] it was < 5.70; in the assay on PC3 cells [2], 7.30 to 8.30.
Regarding `COc1cc(C(=O)N2CCC3(CCN(C)CC3)CC2)ccc1Nc1ncc(C(F)(F)F)c(Oc2cccc3c2C(=O)N(C)C32CC2)n1` [Compound 56], the figures for the pIC50 at FAK recombinant protein, with PC3 cells [1] and in the assay on PC3 cells [2] were > 7.70, < 5.70 and < 7.30, respectively.
For `COc1cc(C(=O)N2CCC3(CCN(C)C3)C2)ccc1Nc1ncc(C(F)(F)F)c(Oc2cccc3c2C(=O)N(C)C32CC2)n1` (stereo not drawn) [Compound 57] the same measures were > 7.70, < 5.70 and 7.30 to 8.30.
For `COc1cc(C(=O)N2CCC23CCN(C)CC3)ccc1Nc1ncc(C(F)(F)F)c(Oc2cccc3c2C(=O)N(C)C32CC2)n1` [Compound 59] the same measures were > 7.70, < 5.70 and 7.30 to 8.30.
For `COc1cc(C(=O)N2CCC3(CCN(C)CC3)C2)ccc1Nc1ncc(C(F)(F)F)c(Oc2cccc3c2C(=O)N(C)C32CC2)n1` [Compound 60] the same measures were > 7.70, < 5.70 and 7.30 to 8.30.
In the case of `COc1cc(C(=O)N2CCC3(CCCN(C)C3)C2)ccc1Nc1ncc(C(F)(F)F)c(Oc2cccc3c2C(=O)N(C)C32CC2)n1` (stereo not drawn) [Compound 61], the pIC50 at FAK recombinant protein is > 7.70; in the assay on PC3 cells [1], < 5.70; in the assay with PC3 cells [2] it was 7.30 to 8.30.
For `COc1cc(N2CCC3(CCN(C)CC3)C2=O)ccc1Nc1ncc(C(F)(F)F)c(Oc2cccc3c2C(=O)N(C)C32CC2)n1` [Compound 62] the same measures were > 7.70, < 5.70 and 7.30 to 8.30.
For `COc1cc(N2CC3(CCN(C)CC3)CC2=O)ccc1Nc1ncc(C(F)(F)F)c(Oc2cccc3c2C(=O)N(C)C32CC2)n1` [Compound 63] the same measures were > 7.70, < 5.70 and > 8.30.
For `COc1cc(N2CC3(CCN(C)CC3)OC2=O)ccc1Nc1ncc(C(F)(F)F)c(Oc2cccc3c2C(=O)N(C)C32CC2)n1` [Compound 64], the pIC50 at FAK recombinant protein is > 7.70; with PC3 cells [1] it was < 5.70; in the assay on PC3 cells [2], 7.30 to 8.30.
In the case of `COc1cc(N2CC3(CCN(C)C3)OC2=O)ccc1Nc1ncc(C(F)(F)F)c(Oc2cccc3c2C(=O)N(C)C32CC2)n1` (stereo not drawn) [Compound 65], the pIC50 at FAK recombinant protein was > 7.70; with PC3 cells [1], < 5.70; with PC3 cells [2], > 8.30.
For `COc1cc(N2CC3(CCC2=O)CCN(C)CC3)ccc1Nc1ncc(C(F)(F)F)c(Oc2cccc3c2C(=O)N(C)C32CC2)n1` [Compound 66] the same measures were > 7.70, < 5.70 and < 7.30.
For the compound `COc1cc(N2CC3(CCN(C)C3)OCC2=O)ccc1Nc1ncc(C(F)(F)F)c(Oc2cccc3c2C(=O)N(C)C32CC2)n1` (stereo not drawn) [Compound 67], the pIC50 at FAK recombinant protein was > 7.70; with PC3 cells [1], < 5.70; in the assay with PC3 cells [2], 7.30 to 8.30.
For the compound `COc1cc(C2=NOC3(CCN(C)CC3)C2)ccc1Nc1ncc(C(F)(F)F)c(Oc2cccc3c2C(=O)N(C)C32CC2)n1` [Compound 68], the values for the negative logarithm of the IC50 (pIC50) on FAK recombinant protein, in the assay with PC3 cells [1] and in the assay with PC3 cells [2] were > 7.70, < 5.70 and < 7.30, respectively.

In general, pIC50 refers to −log10 of the IC50, conventionally taken in molar units.
